{"source": "patent US20180237441A1", "about": "“Chemical Compounds” (GlaxoSmithKline Intellectual Property (No.2) Limited, priority 2015, published 2018)"}
{"molecular_target": "T1, PERK (Homo sapiens, UniProt Q9NZJ5)", "T1 sequence (Q9NZJ5 30-1116)": "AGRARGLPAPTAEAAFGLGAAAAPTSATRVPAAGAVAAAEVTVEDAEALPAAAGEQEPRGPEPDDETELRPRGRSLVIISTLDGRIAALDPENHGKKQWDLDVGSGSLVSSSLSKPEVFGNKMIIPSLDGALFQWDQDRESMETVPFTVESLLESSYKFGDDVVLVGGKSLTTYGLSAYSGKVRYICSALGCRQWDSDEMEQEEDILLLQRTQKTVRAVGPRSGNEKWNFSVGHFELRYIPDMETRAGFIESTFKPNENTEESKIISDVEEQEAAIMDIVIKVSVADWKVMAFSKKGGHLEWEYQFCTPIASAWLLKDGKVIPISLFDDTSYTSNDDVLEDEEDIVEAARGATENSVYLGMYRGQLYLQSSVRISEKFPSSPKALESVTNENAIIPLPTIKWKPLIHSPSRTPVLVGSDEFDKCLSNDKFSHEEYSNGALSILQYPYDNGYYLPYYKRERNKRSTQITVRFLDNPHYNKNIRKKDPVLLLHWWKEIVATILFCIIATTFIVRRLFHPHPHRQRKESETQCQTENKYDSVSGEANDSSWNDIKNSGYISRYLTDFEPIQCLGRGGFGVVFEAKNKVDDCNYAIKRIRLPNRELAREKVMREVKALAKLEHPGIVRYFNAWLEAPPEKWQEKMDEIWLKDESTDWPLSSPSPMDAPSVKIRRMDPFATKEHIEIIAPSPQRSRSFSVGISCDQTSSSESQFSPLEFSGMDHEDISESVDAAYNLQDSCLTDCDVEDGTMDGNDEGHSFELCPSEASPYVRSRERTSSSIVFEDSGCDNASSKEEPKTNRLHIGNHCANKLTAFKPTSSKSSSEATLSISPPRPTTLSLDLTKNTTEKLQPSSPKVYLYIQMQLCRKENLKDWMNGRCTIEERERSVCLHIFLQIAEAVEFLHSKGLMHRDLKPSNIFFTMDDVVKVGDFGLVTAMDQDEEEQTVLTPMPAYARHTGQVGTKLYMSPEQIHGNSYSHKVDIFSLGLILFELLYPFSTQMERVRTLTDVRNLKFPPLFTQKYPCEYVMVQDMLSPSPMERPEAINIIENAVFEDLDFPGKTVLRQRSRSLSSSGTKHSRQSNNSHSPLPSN", "assay": "PERK enzyme assay (HTRF)", "type": "biochemical", "details": "500 μM ATP; at least one experimental run; read-out: PERK Enzyme (500 μM ATP) IC50", "procedure,_shortened": "(§1)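 HTRF read-out after 2 h of EDTA-quenched reactions, detecting phospho-eIF2α with Eu/APC reagents, gave IC50 values. Reaction: 0.75 nM GST-PERK, 30–60 min compound pre-incubation (max 1% DMSO), then 60 min with 40 nM biotin-eIF2α and 500 μM ATP, HEPES pH 7.5 buffer.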", "units": {"IC50": "nM"}}
{"smiles": "CN1C(=O)N(c2ccc(-c3cn(C)c4ncnc(N)c34)c(F)c2)CC1c1ccc(F)cc1F", "note": "(single isomer, unassigned) [Example 46, 1-(4-(4-amino-7-methyl-7H-pyrrolo[2,3-d]pyrimidin-5-yl)-3-fluorophenyl)-4-(2,4-difluorophenyl)-3-methylimidazolidin-2-one]", "IC50": 13.8}
{"molecular_target": "T1, PERK", "assay": "PERK enzyme assay (HTRF)", "type": "biochemical", "details": "PERK Enzyme (500 μM ATP) IC50; at least one experimental run; read-out: PERK Activity", "procedure,_shortened": "as §1", "units": {"IC50": "nM"}}
{"smiles": "CN1C(=O)N(c2ccc(-c3cn(C)c4ncnc(N)c34)c(F)c2)CC1c1cc(F)cc(F)c1", "note": "(single isomer, unassigned) [Example 101, 1-(4-(4-amino-7-methyl-7H-pyrrolo[2,3-d]pyrimidin-5-yl)-3-fluorophenyl)-4-(3,5-difluorophenyl)-3-methylimidazolidin-2-one]", "IC50": "100 to 1000"}
{"smiles": "CCN1C(=O)N(c2ccc(-c3cn(C)c4ncnc(N)c34)c(F)c2)CC1c1cc(F)cc(C(F)(F)F)c1", "note": "(single isomer, unassigned) [Example 89, 1-(4-(4-amino-7-methyl-7H-pyrrolo[2,3-d]pyrimidin-5-yl)-3-fluorophenyl)-3-ethyl-4-(3-fluoro-5-(trifluoromethyl)phenyl)imidazolidin-2-one]", "IC50": "100 to 1000"}
{"smiles": "CCN1C(=O)N(c2ccc(-c3cn(C)c4ncnc(N)c34)c(F)c2)CC1c1cc(F)cc(Cl)c1", "note": "(stereo not drawn) [Example 27, 1-(4-(4-amino-7-methyl-7H-pyrrolo[2,3-d]pyrimidin-5-yl)-3-fluorophenyl)-4-(3-chloro-5-fluorophenyl)-3-ethylimidazolidin-2-one]", "IC50": "100 to 1000"}
{"smiles": "Cn1cc(-c2ccc(N3CC(C4CCCCC4)CC3=O)cc2F)c2c(N)ncnc21", "note": "(stereo not drawn) [Example 6, 1-(4-(4-Amino-7-methyl-7H-pyrrolo[2,3-d]pyrimidin-5-yl)-3-fluorophenyl)-4-cyclohexyl pyrrolidin-2-one]", "IC50": "> 1000"}
{"smiles": "Cc1nc(C2CN(c3ccc(-c4cn(C)c5ncnc(N)c45)c(F)c3)C(=O)N2C)ccc1F", "note": "(single isomer, unassigned) [Example 113, 1-(4-(4-amino-7-methyl-7H-pyrrolo[2,3-d]pyrimidin-5-yl)-3-fluorophenyl)-4-(5-fluoro-6-methylpyridin-2-yl)-3-methylimidazolidin-2-one]", "IC50": "< 100"}
{"smiles": "Cc1nc(N)c2c(-c3ccc(N4CC(c5ccc(Cl)nc5)N(C)C4=O)cc3F)cn(C)c2n1", "note": "(stereo not drawn) [Example 135, 1-(4-(4-amino-2,7-dimethyl-7H-pyrrolo[2,3-d]pyrimidin-5-yl)-3-fluorophenyl)-4-(6-chloropyridin-3-yl)-3-methylimidazolidin-2-one]", "IC50": "< 100"}
{"smiles": "CN1C(=O)N(c2ccc(-c3cn(C4CC4)c4ncnc(N)c34)c(F)c2)CC1c1cccc(Cl)c1", "note": "(stereo not drawn) [Example 148, 1-(4-(4-amino-7-cyclopropyl-7H-pyrrolo[2,3-d]pyrimidin-5-yl)-3-fluorophenyl)-4-(3-chlorophenyl)-3-methylimidazolidin-2-one]", "IC50": "< 100"}
{"smiles": "CN1C(=O)N(c2ccc(-c3cn(C4CC4)c4ncnc(N)c34)c(F)c2)CC1c1cccc(F)c1", "note": "(single isomer, unassigned) [Example 126, 1-(4-(4-amino-7-cyclopropyl-7H-pyrrolo[2,3-d]pyrimidin-5-yl)-3-fluorophenyl)-4-(3-fluorophenyl)-3-methylimidazolidin-2-one]", "IC50": "< 100"}
{"smiles": "Cc1nc(N)c2c(-c3ccc(N4CC(c5ccc(F)cc5)N(C)C4=O)cc3F)cn(C3CC3)c2n1", "note": "(stereo not drawn) [Example 91, 1-(4-(4-amino-7-cyclopropyl-2-methyl-7H-pyrrolo[2,3-d]pyrimidin-5-yl)-3-fluorophenyl)-4-(4-fluorophenyl)-3-methylimidazolidin-2-one]", "IC50": "< 100"}
{"smiles": "CN1C(=O)N(c2ccc(-c3cn(C)c4ncnc(N)c34)c(F)c2)CC1c1ccc(F)cc1F", "note": "(single isomer, unassigned) [Example 46, 1-(4-(4-amino-7-methyl-7H-pyrrolo[2,3-d]pyrimidin-5-yl)-3-fluorophenyl)-4-(2,4-difluorophenyl)-3-methylimidazolidin-2-one]", "IC50": "< 100"}
{"smiles": "CCN1C(=O)N(c2ccc(-c3cn(C)c4ncnc(N)c34)c(F)c2)CC1c1cc(F)ccc1F", "note": "(single isomer, unassigned) [Example 3, 1-(4-(4-amino-7-methyl-7H-pyrrolo[2,3-d]pyrimidin-5-yl)-3-fluorophenyl)-4-(2,5-difluorophenyl)-3-ethylimidazolidin-2-one]", "IC50": "100 to 1000"}
{"smiles": "CN1C(=O)N(c2ccc(-c3cn(C)c4ncnc(N)c34)c(F)c2)CC1c1cc(F)c(F)cc1F", "note": "(single isomer, unassigned) [Example 159, 1-(4-(4-amino-7-methyl-7H-pyrrolo[2,3-d]pyrimidin-5-yl)-3-fluorophenyl)-3-methyl-4-(2,4,5-trifluorophenyl)imidazolidin-2-one]", "IC50": "100 to 1000"}
{"smiles": "CN1C(=O)N(c2ccc(-c3cn(C)c4ncnc(N)c34)c(F)c2)CC1c1ccc(F)cc1F", "note": "(single isomer, unassigned) [Example 47, 1-(4-(4-amino-7-methyl-7H-pyrrolo[2,3-d]pyrimidin-5-yl)-3-fluorophenyl)-4-(2,4-difluorophenyl)-3-methylimidazolidin-2-one]", "IC50": "> 1000"}
{"smiles": "CCN1C(=O)N(c2ccc(-c3cn(C)c4ncnc(N)c34)cn2)CC1c1cc(F)ccc1F", "note": "(stereo not drawn) [Example 41, 1-(5-(4-amino-7-methyl-7H-pyrrolo[2,3-d]pyrimidin-5-yl)pyridin-2-yl)-4-(2,5-difluorophenyl)-3-ethylimidazolidin-2-one]", "IC50": "100 to 1000"}
{"smiles": "CN1C(=O)N(c2ccc(-c3cn(C)c4ncnc(N)c34)c(F)c2)CC1c1ccc(F)c(F)c1", "note": "(stereo not drawn) [Example 96, 1-(4-(4-amino-7-methyl-7H-pyrrolo[2,3-d]pyrimidin-5-yl)-3-fluorophenyl)-4-(3,4-difluorophenyl)-3-methylimidazolidin-2-one]", "IC50": "< 100"}
{"smiles": "Cc1cc(C)cc(C2CC(=O)N(c3ccc(-c4cn(C)c5ncnc(N)c45)c(F)c3)C2)c1", "note": "(stereo not drawn) [Example 30, 1-(4-(4-amino-7-methyl-7H-pyrrolo[2,3-d]pyrimidin-5-yl)-3-fluorophenyl)-4-(3,5-dimethylphenyl)pyrrolidin-2-one]", "IC50": "< 100"}
{"smiles": "CCN1C(=O)N(c2ccc(-c3cn(C)c4nc(C)nc(N)c34)c(F)c2)CC1c1cc(F)ccc1F", "note": "(single isomer, unassigned) [Example 54, 1-(4-(4-amino-2,7-dimethyl-7H-pyrrolo[2,3-d]pyrimidin-5-yl)-3-fluorophenyl)-4-(2,5-difluorophenyl)-3-ethylimidazolidin-2-one]", "IC50": "< 100"}
{"smiles": "CN1C(=O)N(c2ccc(-c3cn(C4CC4)c4ncnc(N)c34)c(F)c2)CC1c1ccc(F)c(Cl)c1", "note": "(single isomer, unassigned) [Example 134, 1-(4-(4-amino-7-cyclopropyl-7H-pyrrolo[2,3-d]pyrimidin-5-yl)-3-fluorophenyl)-4-(3-chloro-4-fluorophenyl)-3-methylimidazolidin-2-one]", "IC50": "< 100"}
{"smiles": "Cc1nc(N)c2c(-c3ccc(N4CC(c5ccc(F)cc5)N(C)C4=O)cc3F)cn(C3CC3)c2n1", "note": "(single isomer, unassigned) [Example 90, 1-(4-(4-amino-7-cyclopropyl-2-methyl-7H-pyrrolo[2,3-d]pyrimidin-5-yl)-3-fluorophenyl)-4-(4-fluorophenyl)-3-methylimidazolidin-2-one]", "IC50": "< 100"}
{"smiles": "CCN1C(=O)N(c2ccc(-c3c(C)n(C)c4ncnc(N)c34)c(F)c2)CC1c1ccc(F)cc1F", "note": "(stereo not drawn) [Example 93, 1-(4-(4-amino-6,7-dimethyl-7H-pyrrolo[2,3-d]pyrimidin-5-yl)-3-fluorophenyl)-4-(2,4-difluorophenyl)-3-ethylimidazolidin-2-one]", "IC50": "100 to 1000"}
{"smiles": "CCN1C(=O)N(c2ccc(-c3cn(C4CC4)c4ncnc(N)c34)c(F)c2)CC1c1cc(F)ccc1F", "note": "(single isomer, unassigned) [Example 123, 1-(4-(4-amino-7-cyclopropyl-7H-pyrrolo[2,3-d]pyrimidin-5-yl)-3-fluorophenyl)-4-(2,5-difluorophenyl)-3-ethylimidazolidin-2-one]", "IC50": "100 to 1000"}
{"smiles": "CN1C(=O)N(c2ccc(-c3cn(C4CC4)c4ncnc(N)c34)c(F)c2)CC1c1ccc(F)c(F)c1", "note": "(stereo not drawn) [Example 114, 1-(4-(4-amino-7-cyclopropyl-7H-pyrrolo[2,3-d]pyrimidin-5-yl)-3-fluorophenyl)-4-(3,4-difluorophenyl)-3-methylimidazolidin-2-one]", "IC50": "< 100"}
{"smiles": "Cc1nc(N)c2c(-c3ccc(N4CC(c5cc(F)ccc5F)N(C)C4=O)cc3F)cn(C)c2n1", "note": "(single isomer, unassigned) [Example 37, 1-(4-(4-amino-2,7-dimethyl-7H-pyrrolo[2,3-d]pyrimidin-5-yl)-3-fluorophenyl)-4-(2,5-difluorophenyl)-3-methylimidazolidin-2-one]", "IC50": "100 to 1000"}
